Laboratory results reported in US20260274829A1, “NEW E3 UBIQUITIN LIGASE LIGAND, PROTEIN DEGRADATION AGENT AND USE THEREOF” (GLUETACS THERAPEUTICS (SHANGHAI) CO., LTD., priority 2023, published 2026).

Molecular target: T1, human Cereblon WT GST-tagged protein (Homo sapiens, UniProt Q96SW2)
T1 construct: purchased CISBIO 64BDCRBNPEH
Assay: CRBN binding, HTRF CEREBLON BINDING kit
Details: CRBN binding, HTRF CEREBLON BINDING kit
In short: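 HTRF competition in which test compounds displace a Thalidomide-Re tracer from GST-tagged human Cereblon WT, detected with a GST Eu antibody. Incubation lasted 3 hours at room temperature, with emission read at 620 and 665 nm. Inhibition rate was derived from 665/620 ratios relative to blank and solvent control wells.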

T1 sequence (Q96SW2 whole entry): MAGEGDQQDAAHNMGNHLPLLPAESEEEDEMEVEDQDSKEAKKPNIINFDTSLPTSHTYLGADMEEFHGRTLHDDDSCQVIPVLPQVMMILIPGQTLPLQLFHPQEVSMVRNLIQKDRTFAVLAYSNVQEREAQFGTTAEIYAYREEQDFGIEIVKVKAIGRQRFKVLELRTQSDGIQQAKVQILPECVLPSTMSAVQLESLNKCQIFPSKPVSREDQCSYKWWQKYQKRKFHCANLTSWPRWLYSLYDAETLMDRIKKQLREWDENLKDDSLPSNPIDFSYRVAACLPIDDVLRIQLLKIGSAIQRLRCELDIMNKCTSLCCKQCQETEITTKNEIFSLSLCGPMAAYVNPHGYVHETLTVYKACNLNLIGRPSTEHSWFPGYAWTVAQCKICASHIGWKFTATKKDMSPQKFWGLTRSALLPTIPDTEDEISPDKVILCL

Row | IC50 [nM] | Compound
1 | 1000 to 1900 | COc1cc(N2CCC(N(C)Cc3cncc(N4CCC(=O)NC4=O)c3)CC2)ccc1Nc1ncc(Cl)c(Nc2ccccc2P(C)(C)=O)n1 [GT-07695, 1-(5-(((1-(4-((5-chloro-4-((2-(dimethylphosphoryl)phenyl)amino)pyrimidin-2-yl)amino)-3-methoxyphenyl)piperidin-4-yl)(methyl)amino)methyl)pyridin-3-yl)dihydropyrimidine-2,4(1H,3H)-dione]
2 | 1000 to 1900 | O=C1CCC(c2cc(CN3CCN(c4ccc(-c5cc(F)c6c(c5)C(=O)N(C(C(=O)Nc5nccs5)c5ncn7c5CCC7)C6)cc4)CC3)ccn2)C(=O)N1 (stereo not shown) [GT-07392, 2-(6,7-dihydro-5H-pyrrolo[1,2-c]imidazol-1-yl)-2-(6-(4-(4-((2-(2,6-dioxopiperidin-3-yl)pyridin-4-yl)methyl)piperazin-1-yl)phenyl)-4-fluoro-1-oxoisoindolin-2-yl)-N-(thiazol-2-yl)acetamide]
3 | 1000 to 1900 | Cc1nc2c(F)cc(-c3nc(Nc4ccc(N5CCC(N(C)Cc6cccc(N7CCC(=O)NC7=O)c6)CC5)cn4)ncc3F)cc2n1C(C)C [GT-06839, 1-(3-(((1-(6-((5-fluoro-4-(4-fluoro-1-isopropyl-2-methyl-1H-benzo[d]imidazol-6-yl)pyrimidin-2-yl)amino)pyridin-3-yl)piperidin-4-yl)(methyl)amino)methyl)phenyl)dihydropyrimidine-2,4(1H,3H)-dione]
4 | 500 to 1000 | O=C1CCC(Nc2cccc(CN3C[C@H]4C[C@@H]3CN4c3ccc(-c4cc(F)c5c(c4)C(=O)N(C(C(=O)Nc4nccs4)c4ncn6c4CCC6)C5)cc3)c2)C(=O)N1 (stereo partly drawn) [GT-06179, 2-(6,7-dihydro-5H-pyrrolo[1,2-c]imidazol-1-yl)-2-(6-(4-((1R,4R)-5-(3-((2,6-dioxopiperidin-3-yl)amino)benzyl)-2,5-diazabicyclo[2.2.1]heptan-2-yl)phenyl)-4-fluoro-1-oxoisoindolin-2-yl)-N-(thiazol-2-yl)acetamide]
5 | 1000 to 1900 | CN(C)C(=O)c1cc2cnc(Nc3ccc(N4CCN(Cc5ccc(N6CCC(=O)NC6=O)cn5)CC4)cn3)nc2n1C1CCCC1 [GT-06342, 7-cyclopentyl-2-((5-(4-((5-(2,4-dioxotetrahydropyrimidin-1(2H)-yl)pyridin-2-yl)methyl)piperazin-1-yl)pyridin-2-yl)amino)-N,N-dimethyl-7H-pyrrolo[2,3-d]pyrimidine-6-carboxamide]
6 | 500 to 1000 | O=C1CCN(c2cccc(CN3CCC(n4cc(NC(=O)c5coc(-c6ccnc(NCC7CC7)c6)n5)c(C(F)F)n4)CC3)c2)C(=O)N1 [GT-04965, 2-(2-((cyclopropylmethyl)amino)pyridin-4-yl)-N-(3-(difluoromethyl)-1-(1-(3-(2,4-dioxotetrahydropyrimidin-1(2H)-yl)benzyl)piperidin-4-yl)-1H-pyrazol-4-yl)oxazole-4-carboxamide]
7 | 1000 to 1900 | COc1cc2nn(C3CCN(Cc4ccc(N5CCC(=O)NC5=O)cc4F)CC3)cc2cc1NC(=O)c1cccc(C(F)(F)F)n1 [GT-04777, N-(2-(1-(4-(2,4-dioxotetrahydropyrimidin-1(2H)-yl)-2-fluorobenzyl)piperidin-4-yl)-6-methoxy-2H-indazol-5-yl)-6-(trifluoromethyl)picolinamide]
8 | 1000 to 1900 | O=C1CCC(c2ccc(CN3CCN(C4CCN(c5ccc(-c6cc(F)c7c(c6)C(=O)N(C(C(=O)Nc6nccs6)c6ncn8c6CCC8)C7)cc5)CC4(F)F)CC3)cc2)C(=O)N1 (stereo not shown) [GT-06317, 2-(6,7-dihydro-5H-pyrrolo[1,2-c]imidazol-1-yl)-2-(6-(4-(4-(4-(4-(2,6-dioxopiperidin-3-yl)benzyl)piperazin-1-yl)-3,3-difluoropiperidin-1-yl)phenyl)-4-fluoro-1-oxoisoindolin-2-yl)-N-(thiazol-2-yl)acetamide]
9 | 500 to 1000 | CCc1cc2c(cc1N1CCN(Cc3cccc(N4CCC(=O)NC4=O)c3)CC1)C(C)(C)c1[nH]c3cc(C#N)ccc3c1C2=O [GT-07325, 8-(4-(3-(2,4-dioxotetrahydropyrimidin-1(2H)-yl)benzyl)piperazin-1-yl)-9-ethyl-6,6-dimethyl-11-oxo-6,11-dihydro-5H-benzo[b]carbazole-3-carbonitrile]
10 | 500 to 1000 | CC(C)(O)c1cc2nn(C3CCN(Cc4ccc(C5CCC(=O)NC5=O)cc4)CC3)cc2cc1NC(=O)c1cccc(C(F)(F)F)n1 (stereo not shown) [GT-05753, N-(2-(1-(4-(2,6-dioxopiperidin-3-yl)benzyl)piperidin-4-yl)-6-(2-hydroxypropan-2-yl)-2H-indazol-5-yl)-6-(trifluoromethyl)picolinamide]
11 | 1000 to 1900 | Nc1nnc(-c2ccccc2O)cc1N1CCN(Cc2cccc(N3CCC(=O)NC3=O)c2)CC1 [GT-04962, 1-(3-((4-(3-amino-6-(2-hydroxyphenyl)pyridazin-4-yl)piperazin-1-yl)methyl)phenyl)dihydropyrimidine-2,4(1H,3H)-dione]
12 | 500 to 1000 | CN1CCN([C@@H]2CCCN(c3cnc(C(N)=O)c(Nc4ccc(C5CCN(Cc6ccc(N7CCC(=O)NC7=O)cc6)CC5)cc4)n3)C2)C1=O [GT-04802, (R)-3-((4-(1-(4-(2,4-dioxotetrahydropyrimidin-1(2H)-yl)benzyl)piperidin-4-yl)phenyl)amino)-5-(3-(3-methyl-2-oxoimidazolidin-1-yl)piperidin-1-yl)pyrazine-2-carboxamide]
13 | < 500 | CN1CCN([C@@H]2CCCN(c3cnc(C(N)=O)c(Nc4ccc(C5CCN(Cc6ccc(C7CCC(=O)NC7=O)cc6)CC5)cc4)n3)C2)C1=O (stereo partly drawn) [GT-04798, 3-((4-(1-(4-(2,6-dioxopiperidin-3-yl)benzyl)piperidin-4-yl)phenyl)amino)-5-((R)-3-(3-methyl-2-oxoimidazolidin-1-yl)piperidin-1-yl)pyrazine-2-carboxamide]
14 | 1000 to 1900 | COc1cc(N2CCC(N3CCN(Cc4cncc(C5CCC(=O)NC5=O)c4)CC3)CC2)ccc1Nc1ncc(Cl)c(Nc2ccccc2P(C)(C)=O)n1 (stereo not shown) [GT-07614, 3-(5-((4-(1-(4-((5-chloro-4-((2-(dimethylphosphoryl)phenyl)amino)pyrimidin-2-yl)amino)-3-methoxyphenyl)piperidin-4-yl)piperazin-1-yl)methyl)pyridin-3-yl)piperidine-2,6-dione]
15 | 500 to 1000 | COc1cc2nn(C3CCN(Cc4ccc(C5CCC(=O)NC5=O)cc4)CC3)cc2cc1NC(=O)c1cccc(C(F)(F)F)n1 (stereo not shown) [GT-04761, N-(2-(1-(4-(2,6-dioxopiperidin-3-yl)benzyl)piperidin-4-yl)-6-methoxy-2H-indazol-5-yl)-6-(trifluoromethyl)picolinamide]
16 | < 500 | CN(Cc1ccc(C2CCC(=O)NC2=O)cn1)C1CCN(c2ccc(-c3cc(F)c4c(c3)C(=O)N(C(C(=O)Nc3nccs3)c3ncn5c3CCC5)C4)cc2)CC1 (stereo not shown) [GT-07385, 2-(6,7-dihydro-5H-pyrrolo[1,2-c]imidazol-1-yl)-2-(6-(4-(4-(((5-(2,6-dioxopiperidin-3-yl)pyridin-2-yl)methyl)(methyl)amino)piperidin-1-yl)phenyl)-4-fluoro-1-oxoisoindolin-2-yl)-N-(thiazol-2-yl)acetamide]
17 | 500 to 1000 | Cc1cc(Nc2ncc(Cl)c(Nc3ccccc3S(=O)(=O)C(C)C)n2)c(OC(C)C)cc1C1CCN(Cc2cccc(N3CCC(=O)NC3=O)c2)CC1 [GT-07593, 1-(3-((4-(4-((5-chloro-4-((2-(isopropylsulfonyl)phenyl)amino)pyrimidin-2-yl)amino)-5-isopropoxy-2-methylphenyl)piperidin-1-yl)methyl)phenyl)dihydropyrimidine-2,4(1H,3H)-dione]
18 | 1000 to 1900 | O=C1CCN(c2cc(CN3C[C@H]4C[C@@H]3CN4c3ccc(-c4cc(F)c5c(c4)C(=O)N(C(C(=O)Nc4nccs4)c4ncn6c4CCC6)C5)cc3)c(F)cn2)C(=O)N1 (stereo partly drawn) [GT-07386, 2-(6,7-dihydro-5H-pyrrolo[1,2-c]imidazol-1-yl)-2-(6-(4-((1R,4R)-5-((2-(2,4-dioxotetrahydropyrimidin-1(2H)-yl)-5-fluoropyridin-4-yl)methyl)-2,5-diazabicyclo[2.2.1]heptan-2-yl)phenyl)-4-fluoro-1-oxoisoindolin-2-yl)-N-(thiazol-2-yl)acetamide]
19 | 500 to 1000 | O=C1CCC(Nc2cccc(CN3C[C@@H]4C[C@H]3CN4c3ccc(-c4cc(F)c5c(c4)C(=O)N(C(C(=O)Nc4nccs4)c4ncn6c4CCC6)C5)cc3)c2)C(=O)N1 (stereo partly drawn) [GT-05118, 2-(6,7-dihydro-5H-pyrrolo[1,2-c]imidazol-1-yl)-2-(6-(4-((1S,4S)-5-(3-((2,6-dioxopiperidin-3-yl)amino)benzyl)-2,5-diazabicyclo[2.2.1]heptan-2-yl)phenyl)-4-fluoro-1-oxoisoindolin-2-yl)-N-(thiazol-2-yl)acetamide]
20 | 500 to 1000 | O=C1CCN(c2ccc(CN3C[C@H]4C[C@@H]3CN4c3ccc(-c4cc(F)c5c(c4)C(=O)N(C(C(=O)Nc4nccs4)c4ncn6c4CCC6)C5)cc3)nc2)C(=O)N1 (stereo partly drawn) [GT-06190, 2-(6,7-dihydro-5H-pyrrolo[1,2-c]imidazol-1-yl)-2-(6-(4-((1R,4R)-5-((5-(2,4-dioxotetrahydropyrimidin-1(2H)-yl)pyridin-2-yl)methyl)-2,5-diazabicyclo[2.2.1]heptan-2-yl)phenyl)-4-fluoro-1-oxoisoindolin-2-yl)-N-(thiazol-2-yl)acetamide]

Row | Compound | IC50 [nM]
21 | O=C1CCN(c2ccc(CN3C4CCC3CN(c3ccc(-c5cc(F)c6c(c5)C(=O)N(C(C(=O)Nc5nccs5)c5ncn7c5CCC7)C6)cc3)C4)cc2)C(=O)N1 (stereo not shown) [GT-06253, 2-(6,7-dihydro-5H-pyrrolo[1,2-c]imidazol-1-yl)-2-(6-(4-(8-(4-(2,4-dioxotetrahydropyrimidin-1(2H)-yl)benzyl)-3,8-diazabicyclo[3.2.1]octan-3-yl)phenyl)-4-fluoro-1-oxoisoindolin-2-yl)-N-(thiazol-2-yl)acetamide] | 500 to 1000
22 | C=CC(=O)N1CCC[C@@H](n2nc(-c3ccc(Oc4ccccc4)cc3)c3c(N)ncnc32)C1 [ibrutinib, Ibrutinib, reference compound] | > 10000
